{
  "source": "ChEMBL document CHEMBL2424652",
  "about": "“Synthesis, characterization, and antimicrobial evaluation of novel trichalcones containing core s-triazine moiety” (2013)",
  "type_in_all_cases": "functional",
  "key": {"[1]": {"system": "Staphylococcus aureus", "assay": "Antibacterial activity against Staphylococcus aureus at 200 ug/mL after 24 hrs by disc diffusion method", "details": "read-out: DIZ"}, "[2]": {"system": "Proteus vulgaris", "assay": "Antibacterial activity against Proteus vulgaris at 200 ug/mL after 24 hrs by disc diffusion method", "details": "read-out: DIZ"}, "[3]": {"assay": "Antibacterial activity against Xanthomonas citri at 200 ug/mL after 24 hrs by disc diffusion method", "details": "read-out: DIZ"}, "[4]": {"system": "Curvularia", "assay": "Antifungal activity against Curvularia lunata at 200 ug/mL after 48 hrs by disc diffusion method", "details": "for zone of inhibition at 200 µg/mL: read-out: DIZ"}, "[5]": {"system": "Alternaria", "assay": "Antifungal activity against Alternaria at 200 ug/mL after 48 hrs by disc diffusion method", "details": "for zone of inhibition at 200 µg/mL: read-out: DIZ"}, "[6]": {"system": "Pectobacterium carotovorum", "assay": "Antibacterial activity against Erwinia carotovora at 200 ug/mL after 24 hrs by disc diffusion method", "details": "read-out: DIZ"}},
  "data": [
    {"compound": "O=C(/C=C/c1ccc(Oc2nc(Oc3ccc(/C=C/C(=O)c4ccccc4)cc3)nc(Oc3ccc(/C=C/C(=O)c4ccccc4)cc3)n2)cc1)c1ccccc1", "values": [
      {"measurement": "zone of inhibition at 200 µg/mL", "setting": "[1]", "value": 10, "unit": "mm"},
      {"measurement": "zone of inhibition at 200 µg/mL", "setting": "[2]", "value": 7.83, "unit": "mm"},
      {"measurement": "zone of inhibition at 200 µg/mL", "setting": "[3]", "value": 6.96, "unit": "mm"},
      {"measurement": "zone of inhibition at 200 µg/mL", "setting": "[4]", "value": 6.16, "unit": "mm"},
      {"measurement": "zone of inhibition at 200 µg/mL", "setting": "[5]", "value": 5.1, "unit": "mm"},
      {"measurement": "zone of inhibition at 200 µg/mL", "setting": "[6]", "value": 7.93, "unit": "mm"}
    ]},
    {"compound": "O=C(/C=C/c1ccc(Oc2nc(Oc3ccc(/C=C/C(=O)c4ccc([N+](=O)[O-])cc4)cc3)nc(Oc3ccc(/C=C/C(=O)c4ccc([N+](=O)[O-])cc4)cc3)n2)cc1)c1ccc([N+](=O)[O-])cc1", "values": [
      {"measurement": "zone of inhibition at 200 µg/mL", "setting": "[1]", "value": 4.93, "unit": "mm"},
      {"measurement": "zone of inhibition at 200 µg/mL", "setting": "[2]", "value": 5.9, "unit": "mm"},
      {"measurement": "zone of inhibition at 200 µg/mL", "setting": "[3]", "value": 6.1, "unit": "mm"},
      {"measurement": "zone of inhibition at 200 µg/mL", "setting": "[4]", "value": 8.2, "unit": "mm"},
      {"measurement": "zone of inhibition at 200 µg/mL", "setting": "[5]", "value": 7, "unit": "mm"},
      {"measurement": "zone of inhibition at 200 µg/mL", "setting": "[6]", "value": 6.96, "unit": "mm"}
    ]},
    {"compound": "O=C(/C=C/c1ccc(Oc2nc(Oc3ccc(/C=C/C(=O)c4ccc(Br)cc4)cc3)nc(Oc3ccc(/C=C/C(=O)c4ccc(Br)cc4)cc3)n2)cc1)c1ccc(Br)cc1", "values": [
      {"measurement": "zone of inhibition at 200 µg/mL", "setting": "[1]", "value": 9.96, "unit": "mm"},
      {"measurement": "zone of inhibition at 200 µg/mL", "setting": "[2]", "value": 11.9, "unit": "mm"},
      {"measurement": "zone of inhibition at 200 µg/mL", "setting": "[3]", "value": 11.1, "unit": "mm"},
      {"measurement": "zone of inhibition at 200 µg/mL", "setting": "[4]", "value": 10.1, "unit": "mm"},
      {"measurement": "zone of inhibition at 200 µg/mL", "setting": "[5]", "value": 6.16, "unit": "mm"},
      {"measurement": "zone of inhibition at 200 µg/mL", "setting": "[6]", "value": 13, "unit": "mm"}
    ]},
    {"compound": "COc1ccc(C(=O)/C=C/c2ccc(Oc3nc(Oc4ccc(/C=C/C(=O)c5ccc(OC)cc5)cc4)nc(Oc4ccc(/C=C/C(=O)c5ccc(OC)cc5)cc4)n3)cc2)cc1", "values": [
      {"measurement": "zone of inhibition at 200 µg/mL", "setting": "[1]", "value": 7.86, "unit": "mm"},
      {"measurement": "zone of inhibition at 200 µg/mL", "setting": "[2]", "value": 6.96, "unit": "mm"},
      {"measurement": "zone of inhibition at 200 µg/mL", "setting": "[3]", "value": 8.86, "unit": "mm"},
      {"measurement": "zone of inhibition at 200 µg/mL", "setting": "[4]", "value": 13.2, "unit": "mm"},
      {"measurement": "zone of inhibition at 200 µg/mL", "setting": "[5]", "value": 10.2, "unit": "mm"},
      {"measurement": "zone of inhibition at 200 µg/mL", "setting": "[6]", "value": 8.06, "unit": "mm"}
    ]},
    {"compound": "NYSTATIN", "values": [
      {"measurement": "inhibition zone (IZ)", "setting": "[4]", "value": 15, "unit": "mm"},
      {"measurement": "inhibition zone (IZ)", "setting": "[5]", "value": 15, "unit": "mm"}
    ]},
    {"compound": "O=C(/C=C/c1ccc(Oc2nc(Oc3ccc(/C=C/C(=O)c4ccc(Cl)cc4)cc3)nc(Oc3ccc(/C=C/C(=O)c4ccc(Cl)cc4)cc3)n2)cc1)c1ccc(Cl)cc1", "values": [
      {"measurement": "zone of inhibition at 200 µg/mL", "setting": "[1]", "value": 12.1, "unit": "mm"},
      {"measurement": "zone of inhibition at 200 µg/mL", "setting": "[2]", "value": 14, "unit": "mm"},
      {"measurement": "zone of inhibition at 200 µg/mL", "setting": "[3]", "value": 10.1, "unit": "mm"},
      {"measurement": "zone of inhibition at 200 µg/mL", "setting": "[4]", "value": 7.2, "unit": "mm"},
      {"measurement": "zone of inhibition at 200 µg/mL", "setting": "[5]", "value": 8.03, "unit": "mm"},
      {"measurement": "zone of inhibition at 200 µg/mL", "setting": "[6]", "value": 8.06, "unit": "mm"}
    ]},
    {"compound": "CC1(C)S[C@@H]2[C@H](NC(=O)Cc3ccccc3)C(=O)N2[C@H]1C(=O)O", "note": "[PENICILLIN G]", "values": [
      {"measurement": "zone of inhibition at 200 µg/mL", "setting": "[1]", "value": 15, "unit": "mm"},
      {"measurement": "zone of inhibition at 200 µg/mL", "setting": "[2]", "value": 15, "unit": "mm"},
      {"measurement": "zone of inhibition at 200 µg/mL", "setting": "[3]", "value": 15, "unit": "mm"},
      {"measurement": "zone of inhibition at 200 µg/mL", "setting": "[6]", "value": 15, "unit": "mm"}
    ]},
    {"compound": "COc1ccc(OC)c(C(=O)/C=C/c2ccc(Oc3nc(Oc4ccc(/C=C/C(=O)c5cc(OC)ccc5OC)cc4)nc(Oc4ccc(/C=C/C(=O)c5cc(OC)ccc5OC)cc4)n3)cc2)c1", "values": [
      {"measurement": "zone of inhibition at 200 µg/mL", "setting": "[1]", "value": 9.1, "unit": "mm"},
      {"measurement": "zone of inhibition at 200 µg/mL", "setting": "[2]", "value": 7.86, "unit": "mm"},
      {"measurement": "zone of inhibition at 200 µg/mL", "setting": "[3]", "value": 10, "unit": "mm"},
      {"measurement": "zone of inhibition at 200 µg/mL", "setting": "[4]", "value": 12.2, "unit": "mm"},
      {"measurement": "zone of inhibition at 200 µg/mL", "setting": "[5]", "value": 12.2, "unit": "mm"},
      {"measurement": "zone of inhibition at 200 µg/mL", "setting": "[6]", "value": 9.1, "unit": "mm"}
    ]},
    {"compound": "COc1ccc(C(=O)/C=C/c2ccc(Oc3nc(Oc4ccc(/C=C/C(=O)c5ccc(OC)c(OC)c5)cc4)nc(Oc4ccc(/C=C/C(=O)c5ccc(OC)c(OC)c5)cc4)n3)cc2)cc1OC", "values": [
      {"measurement": "zone of inhibition at 200 µg/mL", "setting": "[1]", "value": 9.9, "unit": "mm"},
      {"measurement": "zone of inhibition at 200 µg/mL", "setting": "[2]", "value": 12.3, "unit": "mm"},
      {"measurement": "zone of inhibition at 200 µg/mL", "setting": "[3]", "value": 11.1, "unit": "mm"},
      {"measurement": "zone of inhibition at 200 µg/mL", "setting": "[4]", "value": 12.1, "unit": "mm"},
      {"measurement": "zone of inhibition at 200 µg/mL", "setting": "[5]", "value": 12.1, "unit": "mm"},
      {"measurement": "zone of inhibition at 200 µg/mL", "setting": "[6]", "value": 12.2, "unit": "mm"}
    ]},
    {"compound": "O=C(/C=C/c1ccc(Oc2nc(Oc3ccc(/C=C/C(=O)c4cccc([N+](=O)[O-])c4)cc3)nc(Oc3ccc(/C=C/C(=O)c4cccc([N+](=O)[O-])c4)cc3)n2)cc1)c1cccc([N+](=O)[O-])c1", "values": [
      {"measurement": "zone of inhibition at 200 µg/mL", "setting": "[1]", "value": 7.13, "unit": "mm"},
      {"measurement": "zone of inhibition at 200 µg/mL", "setting": "[2]", "value": 10, "unit": "mm"},
      {"measurement": "zone of inhibition at 200 µg/mL", "setting": "[3]", "value": 7.96, "unit": "mm"},
      {"measurement": "zone of inhibition at 200 µg/mL", "setting": "[4]", "value": 6.96, "unit": "mm"},
      {"measurement": "zone of inhibition at 200 µg/mL", "setting": "[5]", "value": 7.96, "unit": "mm"},
      {"measurement": "zone of inhibition at 200 µg/mL", "setting": "[6]", "value": 6, "unit": "mm"}
    ]},
    {"compound": "COc1cc(C(=O)/C=C/c2ccc(Oc3nc(Oc4ccc(/C=C/C(=O)c5cc(OC)c(OC)c(OC)c5)cc4)nc(Oc4ccc(/C=C/C(=O)c5cc(OC)c(OC)c(OC)c5)cc4)n3)cc2)cc(OC)c1OC", "values": [
      {"measurement": "zone of inhibition at 200 µg/mL", "setting": "[1]", "value": 13, "unit": "mm"},
      {"measurement": "zone of inhibition at 200 µg/mL", "setting": "[2]", "value": 11.1, "unit": "mm"},
      {"measurement": "zone of inhibition at 200 µg/mL", "setting": "[3]", "value": 10.1, "unit": "mm"},
      {"measurement": "zone of inhibition at 200 µg/mL", "setting": "[4]", "value": 14.1, "unit": "mm"},
      {"measurement": "zone of inhibition at 200 µg/mL", "setting": "[5]", "value": 13.2, "unit": "mm"},
      {"measurement": "zone of inhibition at 200 µg/mL", "setting": "[6]", "value": 12.3, "unit": "mm"}
    ]},
    {"compound": "Cc1ccc(C(=O)/C=C/c2ccc(Oc3nc(Oc4ccc(/C=C/C(=O)c5ccc(C)cc5)cc4)nc(Oc4ccc(/C=C/C(=O)c5ccc(C)cc5)cc4)n3)cc2)cc1", "values": [
      {"measurement": "zone of inhibition at 200 µg/mL", "setting": "[1]", "value": 7.93, "unit": "mm"},
      {"measurement": "zone of inhibition at 200 µg/mL", "setting": "[2]", "value": 10, "unit": "mm"},
      {"measurement": "zone of inhibition at 200 µg/mL", "setting": "[3]", "value": 10.1, "unit": "mm"},
      {"measurement": "zone of inhibition at 200 µg/mL", "setting": "[4]", "value": 6.96, "unit": "mm"},
      {"measurement": "zone of inhibition at 200 µg/mL", "setting": "[5]", "value": 5.16, "unit": "mm"},
      {"measurement": "zone of inhibition at 200 µg/mL", "setting": "[6]", "value": 8.03, "unit": "mm"}
    ]}
  ]
}
